Results on 35 compounds are retold here after a melting point compilation (Tetko et al.; mined from patent text by program, amines drawn as free bases though some values may be those of a salt).

As to `CCCCC(Br)C(=O)c1cc(NC(C)=O)ccc1O` (stereo not given), the melting point (usually the temperature of the solid-liquid transition) was 137 to 138 °C. With `Cc1ccc(C(C=NO)=NO)cc1`, the melting point lay in the range of 170 to 176 °C.

Turning to `Clc1ccc(-c2ncc(C#Cc3ccccc3)s2)cc1`, the melting point lay in the range of 108 to 110 °C. As for `O=C1C=CC(c2cccc(F)c2)(c2cccc(F)c2)CC1`, the figure is 95 °C; as for `CC(c1ccc(-c2ccccc2)c(F)c1)c1csc(NC(=O)c2ccccc2)n1` (stereo not given), 147 to 148 °C; as for `COc1ccc(C(=O)n2c(C(=O)O)cc3cc(OC)ccc32)cc1`, 185 to 187 °C. The figure for `CCOC(=O)C1=C(C)Nc2nc(N(C)C)nc(N(C)C)c2C1c1cccc([N+](=O)[O-])c1` (stereo not given) is 149 °C. Regarding `CCCCOC(=O)Cc1cc(O)c(C)cc1O`, the melting point amounted to 113 °C.

As to `Cc1ccc(S(=O)(=O)Oc2ccc(S(=O)(=O)c3c(C)cn4ccccc34)cc2)cc1`, the melting point came to 169 °C. As for `CN1C(=O)C=C(c2ccc([N+](=O)[O-])cc2)C1=O`, the figure is 163 to 166 °C; as for `COc1ccc2c(c1)C(C#Cc1ccccc1)(C(F)(F)F)NC(=O)N2` (racemic), 206 to 208 °C.

Regarding `O=C(Nc1nc(C(Cl)(Cl)Cl)ns1)C(Cl)(Cl)Cl`, the melting point was found to be 158 °C. `Cc1cccc(-c2nc3cccnn3c2-c2ccnc(NC3CCCC3)c2)c1` returned a melting point of 130 to 131 °C. In turn, `Cc1nc2cc(-c3ccc(C=C4SC(=O)NC4=O)cn3)cc(OCc3ccccc3)c2o1` came in with a melting point of 245 °C.

In turn, `O=S1(=O)N=CN(C2CCCC2)c2ccc(Cl)cc21` gave a melting point of 218 to 220 °C. The figure for `CC[C@@H]1C(=O)N(Cc2ccc(OC)cc2OC)[C@H]1C(=O)O` (relative stereo) is 122 to 123 °C; for `CCC(C)(C)c1cc(C(C)c2cc(C(C)(C)CC)cc(C(C)(C)CC)c2O)c(O)c(C(C)(C)CC)c1` it is 116 to 118 °C; for `CC(C)(N)CCOc1ccc(C2=NNC(=O)CC2)cc1Cl` it is 152 to 156 °C. As to `Cc1cc2c(-c3cccc(C(F)(F)F)c3)nc(-c3ccc(C(F)(F)F)cc3)nc2s1`, the melting point was in the range of 134 to 136 °C. As for `O=C(NCC(F)(F)F)c1ccccc1C(c1ccc(O)cc1)c1ccc(O)cc1`, the figure is 165 to 166 °C.

Take `Cn1c(CN2CC=C(/C=C/c3ccccc3)CC2)nc2ccccc21`: the melting point fell in the range of 188 to 190 °C. As for `CCOC(=O)c1ccc(NCCCOc2cccc3ccccc23)cc1`, the figure is 93 to 94 °C; as for `CCCCCCCCCCCCCCCCCCCNC(=O)C1CSC(c2cccnc2)N1` (stereo not given), 108 to 110 °C; as for `CC(=O)OCC1OC(Oc2ccsc2C(=O)c2ccc(OC(F)(F)F)cc2)C(OC(C)=O)C(OC(C)=O)C1OC(C)=O` (stereo not given), 90 to 93 °C. The figure for `CC(C)N(O)C(=O)Cc1ccc2c(c1)C(=O)c1ccccc1CO2` is 144 to 145 °C; for `O=C(c1ccc2nonc2c1)N1CC2CC1CO2` (stereo not given) it is 102 to 104 °C.

As to `CC(c1oc2ccccc2c(=O)c1-c1cccc(F)c1)n1nc(-c2cccc(C(=O)N3CCOCC3)c2)c2c(N)ncnc21` (stereo not given), the melting point lay within 104 to 106 °C. `O=C(O)c1cc(CO[N+](=O)[O-])cc(CO[N+](=O)[O-])c1`: the melting point lay within 39 to 41 °C. Take `O=C(O)C1=Cc2cc(S(=O)(=O)NCc3ccccc3)cc(Cl)c2OC1C(F)(F)F` (stereo not given): the melting point fell in the range of 167 to 174 °C. The figure for `O=c1nc(-c2ccccc2F)c2cc(Cl)ccc2[nH]1` is greater than 300 °C; for `CCNC(=O)c1c(Cl)cccc1C(C)(C)C` it is 121 to 123 °C; for `CCOc1c(C)cc2c(c1C)C1(C)Cc3ccccc3C1=N2` (stereo not given) it is 164 °C.

For `O=C(CCCCCNC(=O)c1ccccc1S)Nc1cccnc1`, the melting point is 110 to 112 °C. The figure for `c1ccc(COc2ccc(NC3Cc4ccccc4C3)cc2)cc1` is 72 to 75 °C; for `CN(c1cc(Cl)ncn1)n1cccc1` it is 88 to 89 °C.
